Laboratory results taken from patent US5750540A, “1,4-di-substituted piperidine derivatives” (Banyu Pharmaceutical Co., Ltd., priority 1995, dated 1998).
Like-named read-outs stand apart in the source and are kept apart here.

Legend:
muscarinic M3 receptor [1] = target: T1, muscarinic M3 receptor (Rattus norvegicus, UniProt P08483); experiment: Intravesical bladder pressure in rats; type: in vivo; set-up: from tissue; details: i.v., 25% inhibition of peak intravesical bladder pressure
Protocol: (§1) Tests for antagonism against muscarinic M3 receptor (in vivo)
4) Tests for intravesical bladder pressure in rats
These tests were performed according to the method of Maggi et al. (Drug Dev. Res. 10: 157-170, 1987). Briefly, eight- to ten-weeks-old male rats of the Sprague-Dawley strain, weighing 330-370 g, were anesthetized by subcutaneous administration of urethane (1 g/kg) and α-chloralose (50 mg/kg), and the right jugular vein was cannulated for drug administration. The body temperature was kept constant by means of a heating pad maintained at 37° C. Through a midline incision of the abdomen, the urinary bladder was exposed and emptied of urine by the application of a slight manual pressure. A 20-gauge needle was inserted through the apex of the bladder dome by 3-4 mm into its lumen. The needle had previously been connected to a pressure transducer and an infusion pump by means of polyethylene tubing and the whole system filled with saline. After a 30-minutes equilibration period at zero volume, saline was infused (2.8 ml/hr) until a coordinated sustained contraction, reflecting the peak intravesical bladder pressure, occured. The bladder was then emptied manually and allowed to rest for five minutes. PvesP was defined as the difference between the maximum and resting bladder pressures. This procedure was repeated at least five times and the evaluation of a test compound was carried out in the animals in which a stable peak intravesical bladder pressure was recorded. The drug potency (ID25 ) was determined after intravenous administration of the test compound during the rest period. Five minutes after drug administration, the infusion of saline was started to induce micturition contraction and the peak intravesical bladder pressure was recorded. The depression in peak intravesical bladder pressure was expressed as a percent of the control peak intravesical bladder pressure observed before administration of the test compound. The ID25 value, calculated by probit analysis, was defined as the drug dose that inhibited the control peak intravesical bladder pressure by 25%.

muscarinic M3 receptor [2] = target: T1, muscarinic M3 receptor; experiment: in vivo; set-up: from tissue; host or cells: living rat, airways; details: iv, read-out: Mydriasis ED50
Protocol: as §1
3) Tests for mydriasis in rats
Five- to seven-weeks-old male rats of the Sprague-Dawley strain were anesthetized with pentobarbital (65 mg/kg, i.p.), and a cannula was inserted into the right jugular vein for purposes of drug administration. By using a graduated scale (pulilometer), pupillary responses to drugs were measured to the nearest 0.1 mm at the point of the greatest diameter. […] Responses were expressed as percentages of the maximal increase in pupil diameter induced by administration of atropine (30 μg/kg, i.v.). The ED50 value was calculated from the dose-response curve of the test compound using probit analysis and defined as the drug dose that induced 50% of the maximal response.

muscarinic M3 receptor [3] = target: T1, muscarinic M3 receptor; experiment: in vivo; set-up: from tissue; host or cells: living rat, airways; details: iv, 5 min, read-out: Airway contraction ID50
Protocol: as §1
(§2) 1) Tests for bronchodilation in rats
(§3) Eight- to eleven-weeks-old male rats of the Sprague-Dawley strain, weighing 300-400 g, were anesthetized with urethane (750 mg/kg, i.p.) and a-chloralose (37.5 mg/kg, i.p.). A bronchus was intubated, and the right jugular vein was cannulated for drug administration. […] To evoke an increase in airway resistance, acetylcholine (50 μg/kg, i.v.) was administered to the animals. Mean values for the acetylcholine-induced increase in airway resistance as measured five minutes before (control) and five minutes after test compound administration were calculated and the results were expressed as percentages of the control response. The ID50 value was calculated from the dose-response curve of the test compound using probit analysis and defined as the drug dose that inhibited the acetylcholine-induced increase in airway resistance in the control group by 50 %.

muscarinic M3 receptor [4] = target: T1, muscarinic M3 receptor; experiment: Intestinal propulsion in rats (charcoal meal); type: in vivo; set-up: from tissue; details: i.v., 15% inhibition of intestinal propulsion
Protocol: as §1
5) Tests for intestinal propulsion in rats
Five- to seven-weeks-old male rats of the Sprague-Dawley strain were fasted overnight. A test compound was administered intravenously to the animals. Five minutes later, 1 ml per animal of a 5% charcoal suspension was administered orally. Thirty minutes after administration of the charcoal meal, the rats were sacrificed by decapitation, and the gastrointestinal tract was removed. The distance from the pylorus to the point of arrival of the charcoal meal was measured and the transportation rate was calculated. The ID15 value was calculated from the dose-response curve using probit analysis and defined as the drug dose that inhibited intestinal propulsion in the control group by 15%.

muscarinic M2 receptors = target: T2, muscarinic M2 receptors (Rattus norvegicus, UniProt P10980); experiment: Bradycardia in rats (acetylcholine-induced); type: in vivo; details: iv, 5 min, i.v., 5 minutes after administration, 50% inhibition of acetylcholine-induced bradycardia, read-out: Bradycardia ID50
T2 construct: a membrane specimen from the heart was used as the membrane specimen; from tissue; host or cells: rat heart membranes (SD rat)
T2 sequence (P10980 1-466): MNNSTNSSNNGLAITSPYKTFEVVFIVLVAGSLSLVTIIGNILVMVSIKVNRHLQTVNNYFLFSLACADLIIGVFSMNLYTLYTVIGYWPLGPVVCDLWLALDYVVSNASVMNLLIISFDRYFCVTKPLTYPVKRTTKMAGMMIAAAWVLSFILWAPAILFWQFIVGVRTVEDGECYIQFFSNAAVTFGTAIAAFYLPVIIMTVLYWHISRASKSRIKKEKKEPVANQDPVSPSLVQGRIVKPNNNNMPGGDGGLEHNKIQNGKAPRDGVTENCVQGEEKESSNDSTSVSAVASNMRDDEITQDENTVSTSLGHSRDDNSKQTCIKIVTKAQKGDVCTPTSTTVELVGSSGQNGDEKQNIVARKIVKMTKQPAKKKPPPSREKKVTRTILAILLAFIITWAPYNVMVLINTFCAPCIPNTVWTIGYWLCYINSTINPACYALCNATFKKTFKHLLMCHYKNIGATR
Protocol: 6) Tests for bradycardia in rats
Eight- to eleven-weeks-old male rats of the Sprague-Dawley strain, weighing 300-400 g, were anesthetized with urethane (750 mg/kg, i.p.) and α-chloralose (37.5 mg/kg, i.p.). A bronchus was intubated, and the right jugular vein was cannulated for drug administration. […] To evoke bradycardia, acetylcholine (50 μg/kg, i.v.) was administered to the animals. Mean values for the acetylcholine-induced decrease in heart rate as measured five minutes before (control) and five minutes after test compound administration were calculated and the results were expressed as percentages relative to the control response. The ID50 value was calculated from the dose-response curve of the test compound using probit analysis and defined as the drug dose that inhibited the acetylcholine-induced bradycardia in the control group by 50%.

muscarinic M3 receptor [5] = experiment: in vivo; details: rat, i.v., Table 3
Protocol: as §1, §2, §3

muscarinic M3 receptor [6] = target: T1, muscarinic M3 receptor; experiment: in vivo; set-up: from tissue; host or cells: living rat, airways; details: iv, read-out: Salivary secretion ID50
Protocol: as §1
2) Tests for salivary secretion in rats
Five- to seven-weeks-old male rats of the Sprague-Dawley strain were anesthetized with sodium pentobarbital (65 mg/kg, i.p.), and a cannula was inserted into the right jugular vein for purposes of drug administration. A test compound was administered intravenously. Five minutes later, carbachol (10 μg/kg, i.v.) was administered to evoke salivary secretion. For each rat, saliva collection was started immediately after carbachol administration and continued for ten minutes. This was carried out by inserting glass capillaries (Drummond, 100 μl) into the oral cavity of the rat at intervals of one minute. The amount of collected saliva was determined on the assumption that a length of 75 mm of the glass capillary corresponded to 100 μl. Physiological saline was used in the control group. The ID50 value was calculated from the dose-response curve of the test compound using probit analysis and defined as the drug dose that inhibited the carbachol-induced salivation in the control group by 50%.

T1 sequence (P08483 whole entry): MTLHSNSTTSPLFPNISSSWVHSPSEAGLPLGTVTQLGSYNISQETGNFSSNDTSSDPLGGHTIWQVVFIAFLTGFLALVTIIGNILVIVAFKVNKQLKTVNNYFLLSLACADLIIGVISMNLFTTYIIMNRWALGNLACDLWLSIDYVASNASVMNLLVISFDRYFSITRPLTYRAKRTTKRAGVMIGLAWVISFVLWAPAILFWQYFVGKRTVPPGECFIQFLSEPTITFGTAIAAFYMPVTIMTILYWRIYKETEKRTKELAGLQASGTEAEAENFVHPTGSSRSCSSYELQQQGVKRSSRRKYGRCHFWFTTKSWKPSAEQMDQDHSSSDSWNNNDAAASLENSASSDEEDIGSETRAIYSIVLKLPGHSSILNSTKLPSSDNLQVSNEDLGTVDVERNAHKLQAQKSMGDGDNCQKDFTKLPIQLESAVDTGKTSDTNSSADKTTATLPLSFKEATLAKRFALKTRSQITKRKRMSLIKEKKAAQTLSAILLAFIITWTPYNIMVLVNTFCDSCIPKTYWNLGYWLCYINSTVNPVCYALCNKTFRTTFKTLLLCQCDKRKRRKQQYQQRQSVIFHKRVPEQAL

Compound	Urinating contraction ID25 (muscarinic M3 receptor [1]) [mg/kg i.v.]	ED50 (muscarinic M3 receptor [2]) [µg/kg]	ED50 (muscarinic M3 receptor [3]) [µg/kg]	Enterokinesis ID15 (muscarinic M3 receptor [4]) [mg/kg i.v.]	ED50 (muscarinic M2 receptors) [µg/kg]	Activity with respect to all of the six types of responses (in words) (muscarinic M3 receptor [5])	Selectivity over the six types of responses (in words) (muscarinic M3 receptor [5])	ED50 (muscarinic M3 receptor [6]) [µg/kg]
CC(C)[N+]1(C)[C@@H]2CC[C@H]1C[C@@H](OC(=O)C(CO)c1ccccc1)C2 (stereo partly shown) [Ipratropium]	0.0048	4.1	1.5	0.004	1.8	potent activities	non-selective	1.8
CN1[C@@H]2CC[C@H]1C[C@@H](OC(=O)C(CO)c1ccccc1)C2 (stereo partly shown) [Atropine]	0.027	18	4.3	0.019	3.7	potent activities	non-selective	2.2
